Measured values from US11767341B2, “Lincosamide antibiotics and uses thereof” (President and Fellows of Harvard College, priority 2017, dated 2023).
≈ marks a conversion by molar mass, not a printed value. Like-named read-outs stand apart in the source and are kept apart here.

Assays:
Experiment in all cases: MIC determination
Type in all cases: cell-based
E. faecalis ATCC 29212 = settings: Enterococcus faecalis
E. coli ATCC 25922 = settings: Escherichia coli
S. pyogenes ATCC 19615 = settings: Streptococcus pyogenes, ATCC19615; S. pyogenes ATCC 19615; read-out: MIC
S. aureus BAA 977 iErmA = settings: Staphylococcus aureus, BAA977
K. pneumoniae ATCC 10031 = settings: Klebsiella pneumoniae, ATCC10031
S. aureus ATCC 29213 = settings: Staphylococcus aureus
[1] = test system: E. coli MP-74 LptD mutant; settings: Escherichia coli
H. influenzae ATCC 49247 = settings: Haemophilus influenzae, ATCC49247
E. coli MP-9 ΔTolC = settings: Escherichia coli
S. pneumoniae ATCC 49619 = settings: Streptococcus pneumoniae, ATCC49619; S. pneumoniae ATCC 49619; read-out: MIC
[2] = test system: S. aureus MP-549 msr(a) USA 300; settings: Staphylococcus aureus, USA300, S. aureus MP-549 msr(a) USA 300
[3] = ATCC29213, S. aureus ATCC 29213, read-out: MIC
[4] = H. influenzae ATCC 49247, read-out: MIC
[5] = ATCC25922, E. coli ATCC 25922, read-out: MIC

SMILES	MIC (E. faecalis ATCC 29212; ATCC29212, read-out: MIC) [µg/mL]	MIC (E. coli ATCC 25922; ATCC25922) [µg/mL]	MIC (S. pyogenes ATCC 19615) [µg/mL]	MIC (S. aureus BAA 977 iErmA) [µg/mL]	MIC (K. pneumoniae ATCC 10031; K. pneumoniae ATCC 10031, read-out: MIC) [µg/mL]	MIC (S. aureus ATCC 29213; [3]) [µg/mL]	MIC [1] [µg/mL]	MIC (H. influenzae ATCC 49247; [4]) [µg/mL]	MIC (E. coli MP-9 ΔTolC) [µg/mL]	MIC (S. pneumoniae ATCC 49619) [µg/mL]	MIC (E. faecalis ATCC 29212; ATCC29212) [µg/mL]	MIC (K. pneumoniae ATCC 10031) [µg/mL]	MIC (H. influenzae ATCC 49247) [µg/mL]	MIC [2] [µg/mL]	MIC (E. coli ATCC 25922; [5]) [µg/mL]	MIC (S. aureus ATCC 29213; ATCC29213) [µg/mL]
CSC1O[C@H]([C@H](NC(=O)[C@H]2NC[C@@H]3C=C(C#Cc4cccc(F)c4)CCO[C@@H]23)[C@H](C)Cl)C(O)[C@@H](O)[C@H]1O (stereo partly drawn) [FSA-510003]	1 (≈ 1.8 µM)	> 64	0.25 (≈ 0.45 µM)	0.25 (≈ 0.45 µM)	16 (≈ 28.8 µM)	0.5 (≈ 0.901 µM)	32 (≈ 57.7 µM)	16 (≈ 28.8 µM)	> 64	0.25 (≈ 0.45 µM)	–	–	–	–	–	–
CSC1O[C@H]([C@H](NC(=O)[C@H]2NC[C@@H]3CC=CCO[C@@H]32)[C@H](C)Cl)C(O)[C@@H](O)[C@H]1O (stereo partly drawn) [FSA-504059]	–	> 64	0.12 (≈ 0.275 µM)	–	–	2 (≈ 4.58 µM)	> 64	–	> 64	0.25 (≈ 0.572 µM)	32 (≈ 73.2 µM)	> 64	> 64	2 (≈ 4.58 µM)	–	–
CSC1O[C@H]([C@H](NC(=O)[C@H]2NC[C@@H]3C=C(c4ccc(C#N)cc4)CCO[C@@H]23)[C@H](C)Cl)C(O)[C@@H](O)[C@H]1O (stereo partly drawn) [FSA-512077]	1 (≈ 1.86 µM)	–	≤ 0.12	–	–	0.5 (≈ 0.929 µM)	64 (≈ 119 µM)	128 (≈ 238 µM)	16 (≈ 29.7 µM)	≤ 0.12	–	–	–	0.25 (≈ 0.465 µM)	> 256	–
CSC1O[C@H]([C@H](NC(=O)[C@H]2NC[C@@H]3CC(NCc4ccc(F)cc4)CCO[C@H]32)[C@H](C)Cl)C(O)[C@@H](O)[C@H]1O (stereo partly drawn) [FSA-510074]	–	> 64	8 (≈ 14.2 µM)	–	–	64 (≈ 114 µM)	> 64	–	> 64	32 (≈ 56.9 µM)	> 64	> 64	> 64	64 (≈ 114 µM)	–	–
CSC1O[C@H]([C@H](NC(=O)[C@H]2NC[C@@H]3C[C@@H](C4CCNCC4)CCO[C@H]32)[C@H](C)Cl)C(O)[C@@H](O)[C@H]1O (stereo partly drawn) [FSA-512011]	64 (≈ 123 µM)	> 256	4 (≈ 7.66 µM)	–	–	8 (≈ 15.3 µM)	> 256	–	> 256	1 (≈ 1.92 µM)	–	–	> 256	8 (≈ 15.3 µM)	–	–
CSC1O[C@H]([C@H](NC(=O)[C@H]2NC[C@@H]3C[C@H](c4ccc(C)cc4)CCO[C@H]32)[C@H](C)Cl)C(O)[C@@H](O)[C@H]1O (stereo partly drawn) [FSA-512079c]	2 (≈ 3.78 µM)	–	≤ 0.12	–	–	–	16 (≈ 30.2 µM)	–	8 (≈ 15.1 µM)	–	–	16 (≈ 30.2 µM)	16 (≈ 30.2 µM)	0.5 (≈ 0.945 µM)	> 128	0.5 (≈ 0.945 µM)
CSC1O[C@H]([C@H](NC(=O)[C@H]2NC[C@@H]3C[C@@H](C4CCN(C)CC4)CCO[C@H]32)[C@H](C)Cl)C(O)[C@@H](O)[C@H]1O (stereo partly drawn) [FSA-512012]	64 (≈ 119 µM)	> 256	4 (≈ 7.46 µM)	–	–	8 (≈ 14.9 µM)	> 256	–	> 256	1 (≈ 1.87 µM)	–	–	> 256	8 (≈ 14.9 µM)	–	–
CSC1O[C@H]([C@H](NC(=O)[C@H]2NC[C@@H]3CC(c4ccc(-c5ccccc5)cc4)=CCO[C@H]32)[C@H](C)Cl)C(O)[C@@H](O)[C@H]1O (stereo partly drawn) [FSA-510001]	–	> 64	2 (≈ 3.39 µM)	2 (≈ 3.39 µM)	–	2 (≈ 3.39 µM)	8 (≈ 13.6 µM)	16 (≈ 27.2 µM)	> 64	4 (≈ 6.79 µM)	8 (≈ 13.6 µM)	> 64	–	–	–	–
CSC1O[C@H]([C@H](NC(=O)[C@H]2NC[C@@H]3C[C@@H](c4ccc(C)cc4)CCO[C@H]32)[C@H](C)Cl)C(O)[C@@H](O)[C@H]1O (stereo partly drawn) [FSA-512079b]	1 (≈ 1.89 µM)	–	≤ 0.12	–	–	–	16 (≈ 30.2 µM)	–	8 (≈ 15.1 µM)	–	–	16 (≈ 30.2 µM)	16 (≈ 30.2 µM)	0.5 (≈ 0.945 µM)	> 128	0.5 (≈ 0.945 µM)
CSC1O[C@H]([C@H](NC(=O)[C@H]2NC[C@@H]3C=C(c4ccc(C)cc4)CCO[C@@H]23)[C@H](C)Cl)C(O)[C@@H](O)[C@H]1O (stereo partly drawn) [FSA-512075]	2 (≈ 3.79 µM)	–	0.25 (≈ 0.474 µM)	–	–	0.5 (≈ 0.949 µM)	64 (≈ 121 µM)	–	32 (≈ 60.7 µM)	0.25 (≈ 0.474 µM)	–	–	64 (≈ 121 µM)	0.25 (≈ 0.474 µM)	> 256	–
CCOC(=O)CCN1C[C@@H]2CC=CCO[C@H]2[C@H]1C(=O)N[C@H]([C@H](C)Sc1ccc(-c2cccnc2)cc1)[C@H]1OC(SC)[C@H](O)[C@H](O)C1O (stereo partly drawn) [FSA-214009b]	> 64	–	8 (≈ 11.6 µM)	–	–	> 64	–	–	–	32 (≈ 46.5 µM)	–	–	–	–	> 64	–
